Test results published in patent EP0209462A1, “Liquid stable anthelmintic and fungicidal composition based on bithionol sulfoxide” (SOCIETE NATIONALE ELF AQUITAINE, priority 1985, dated 1987).
Read-outs that look alike come from different tables or passages of the source.

Columns and labels:
[1] = Maximum tolerated dose and therapeutic index; settings: in vivo, read-out: indice thérapeutique
From the text: La présente invention apporte un progrès marqué dans les traitements des atteintes justiciables du bithionol sulfoxyde et des mélanges de ce composé avec d'autres anthelminthiques. Elle permet l'application des composés actifs sous la forme d'un liquide homogène, ne donnant pas lieu à la sédimentation, susceptible par conséquent d'être dosé avec précision et appliqué par des personnes non spécialisées.Un autre avantage considérable de la composition suivant l'invention est la possibilité de l'administration de celle-ci par injection, forme qui était complètement exclue jusqu'à présent. Un autre avantage également très important de la composition selon l'invention est qu'elle permet l'utilisation du bithionol sulfoxyde et des autres anthelminthiques, composant le mélange, à des doses moindres que celles qui étaient jusqu'alors utilisées. Pour n'en donner qu'un exemple pour le bithionol sulfoxyde, cette dose peut passer de 40 mg/kg de poids vif traité à 30 mg/kg pour une même efficacité. Lorsque l'on sait que la dose maximale tolérée est de 150 mg/kg, cela fait passer l'indice thérapeutique de moins de 4 à 5.

[2] = Stability test at different pH and temperatures (assay of both actives); type: physicochemical
From the text: Des échantillons de la composition de l'exemple 9, qui contient 8% de bithionol sulfoxyde et 1,9% de chlorhydrate de levamisole, sont amenés à différents pH et conservés aux différentes températures, comme indiqué au tableau 4 ci-après.
Les pH inférieurs à 7 sont ajustés avec du tampon mandéli- que (1 M), tandis que les phosphates habituels ont servi (0,025 M) à fixer le pH supérieur à 7.
Dans chaque cas, le dosage des deux corps actifs est effectué aux différentes périodes choisies et les teneurs en ces corps sont notées au tableau 4.

[3] = cited from earlier work
[4] = in vivo; cited from earlier work

For `[O-][S+](c1cc(Cl)cc(Cl)c1O)c1cc(Cl)cc(Cl)c1O` [bithionol sulfoxyde, bis(hydroxy-2 dichloro-3,5 phényl) sulfoxyde], the selectivity ratio ([1]; dose 30 mg/kg (composition selon l'invention)) was 5, the selectivity ratio ([1]; dose 40 mg/kg de poids vif (earlier forms)) was < 4 and the conservation ([2]; pH 2 à 4) was “tout à fait satisfaisante”. The conservation ([2]; pH de 6 à 8) was “se conserve bien”, the “insolubilité dans l'eau” value ([3]; à 25°C) was 4 ppm and the “dose maximale tolérée” value [4] was 150 mg/kg.
In the case of `c1ccc([C@H]2CN3CCSC3=N2)cc1` [chlorhydrate de L(-) levamisole, tétrahydro-2,3,5,6 phényl-6 imidazo(2,1-b)thiazole], the conservation ([2]; pH 6 à 8) is listed as “tient mal” and the “solubilité dans l'eau” value ([3]; water) is listed as ~20%.
